# Reference: patent publication US20050148631A1, “Amino heterocyclyl inhibitors of 11-beta-hydroxy steroid dehydrogenase type 1” (AGOURON PHARMACEUTICALS, INC., priority 2003, published 2005)
# Read-outs that look alike come from different tables or passages of the source.
# Key:
# 11β-hsd-1 enzyme [1] = biological target: T1, 11β-hsd-1 enzyme (Homo sapiens, UniProt P28845); test: 11β-hsd-1 enzyme assay, Kiapp determination (3H-cortisone to cortisol, radio-HPLC); type: biochemical; settings: read-out: Ki app
# T1 sequence (P28845 whole entry, species assumed): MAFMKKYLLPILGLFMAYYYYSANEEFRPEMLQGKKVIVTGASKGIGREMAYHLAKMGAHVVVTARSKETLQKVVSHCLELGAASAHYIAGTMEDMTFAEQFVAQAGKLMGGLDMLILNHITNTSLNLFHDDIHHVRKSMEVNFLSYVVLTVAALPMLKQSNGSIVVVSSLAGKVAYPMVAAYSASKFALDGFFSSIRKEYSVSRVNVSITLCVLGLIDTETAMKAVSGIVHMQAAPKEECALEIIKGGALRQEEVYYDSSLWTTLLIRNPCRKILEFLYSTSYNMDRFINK
# 11β-hsd-1 enzyme [2] = biological target: T1, 11β-hsd-1 enzyme; test: 11β-hsd-1 enzyme assay, percentage of inhibition (3H-cortisone to cortisol, radio-HPLC); type: biochemical
# [3] = 0.1 uM, read-out: % inh @ 0.1 uM
# [4] = compound at 0.1 uM, read-out: % inh @ 0.1 uM
Ki (11β-hsd-1 enzyme [1]) [nM],inhibition at 0.1 µM (11β-hsd-1 enzyme [2]; [3]) [%],"Ki (11β-hsd-1 enzyme [1]; apparent Ki, 11β-hsd-1 enzyme) [nM]",inhibition at 0.1 µM (11β-hsd-1 enzyme [2]; [4]) [%],also measured,SMILES
7.1,90,,,,Cc1cccc(NS(=O)(=O)c2ccc(-c3cccc(Cl)c3Cl)cc2C)n1 [Example 196]
42,72.3,,,,"CCOC(=O)Cc1cccc(NS(=O)(=O)c2cccc(Cl)c2C)n1 [Example 1, Ethyl [6-(3-Chloro-2-methyl-benzenesulfonylamino)-pyridin-2-yl]-acetate]"
270,57.2,,,,Cc1cccc(NS(=O)(=O)/C=C/c2ccccc2)n1 [Example 109]
34.6,66,,,,CCc1cccc(NS(=O)(=O)c2ccc(C(F)(F)F)cc2)n1 [Example 71]
,,10,90,,Cc1cccc(NS(=O)(=O)c2ccc(-c3cc(Cl)cc(Cl)c3)c(C)c2)n1 [Example 222]
46,71,,,,Cc1cccc(NS(=O)(=O)c2ccc(-c3cccc(O)c3)cc2C)n1 [Example 185]
3.2,98,,,,Cc1cccc(NS(=O)(=O)c2ccc(-c3cc(Cl)cc(Cl)c3)cc2C)n1 [Example 174]
,,6.4,100,,"N#Cc1ccc(-c2ccc(S(=O)(=O)Nc3cccc(C4CC4)n3)cn2)cc1 [Example 293, 6-(4-Cyano-phenyl)-pyridine-3-sulfonic acid (6-cyclopropyl-pyridin-2-yl)-amide]"
,,5,95,,Cc1cccc(NS(=O)(=O)c2ccc(-c3ccc(Cl)cc3)c(C)c2)n1 [Example 217]
,,43,75,,CCc1ccccc1-c1ccc(S(=O)(=O)Nc2cccc(C)n2)c(C)c1 [Example 201]
,,12,100,,"N#Cc1ccc(-c2ccc(S(=O)(=O)Nc3ccc4ccccc4n3)cn2)cc1 [Example 290, 6-(4-Cyano-phenyl)-pyridine-3-sulfonic acid quinolin-2-ylamide]"
,,21,88,,Cc1cccc(NS(=O)(=O)c2ccc(-c3ccc(S(C)(=O)=O)cc3)cc2C)n1 [Example 200]
,,19,86,,CCS(=O)(=O)c1ccc(-c2ccc(S(=O)(=O)Nc3cccc(C)n3)c(C)c2)cc1 [Example 203]
3.6,100,,,,N#Cc1ccc(-c2ccc(S(=O)(=O)Nc3ccc4ccccc4n3)cc2)cc1 [Example 87]
,,10,85,,Cc1cccc(NS(=O)(=O)c2ccc(-c3ccc(F)cc3C)cc2C)n1 [Example 204]
,,67,67.4,,O=S(=O)(Nc1ccc2ccccc2n1)N1CCC(c2ccccn2)CC1 [Example 316]
19.7,86.8,,,,Cc1cccc(NS(=O)(=O)c2ccc(-c3ccc(F)cc3)cc2)n1 [Example 128]
,,16,28,,Cc1cccc(NS(=O)(=O)c2ccc(-c3cc(F)cc(F)c3)c(C)c2)n1 [Example 225]
,,29,74,,Cc1cccc(NS(=O)(=O)c2ccc(-c3cc(F)c(F)c(F)c3)c(C)c2)n1 [Example 228]
,,7.3,94.6,,O=S(=O)(Nc1cccc(C2CC2)n1)c1ccc(-c2ccc(C(F)(F)F)cc2)nc1 [Example 294]
11,100,,,,CCc1ccc(-c2ccc(S(=O)(=O)Nc3cccc(C)n3)c(C)c2)cc1 [Example 191]
,,40,70,,Cc1cccc(NS(=O)(=O)c2ccc(-c3ccc(F)cc3)nc2)n1 [Example 268]

Ki (11β-hsd-1 enzyme [1]) [nM],inhibition at 0.1 µM (11β-hsd-1 enzyme [2]; [3]) [%],"Ki (11β-hsd-1 enzyme [1]; apparent Ki, 11β-hsd-1 enzyme) [nM]",inhibition at 0.1 µM (11β-hsd-1 enzyme [2]; [4]) [%],also measured,SMILES
,,110,78,,Cc1cccc(NS(=O)(=O)c2ccc(-c3ccc(C(C)C)cc3)c(C)c2)n1 [Example 233]
,,25,86.1,,O=S(=O)(Nc1ccc2ccccc2n1)N1CCc2conc2CC1 [Example 315]
4.3,98,,,,Nc1cccc(NS(=O)(=O)c2ccc(-c3ccccc3)cc2)n1 [Example 40]
,,18,,"inhibition at 0.1 µM (11β-hsd-1 enzyme [2]; read-out: % inh @ 0.1 uM, compound at 0.1 uM): 100%",Cc1cccc(NS(=O)(=O)N2CCC(c3ccc(C#N)cc3)CC2)n1 [Example 310]
,,22.6,81.8,,"Cc1cccc(NS(=O)(=O)c2ccc(-c3ccc(C#N)cc3)nc2)n1 [Example 267, 6-(4-Cyano-phenyl)-pyridine-3-sulfonic acid (6-methyl-pyridin-2-yl)-amide]"
84,45,,,,Cc1cccc(NS(=O)(=O)c2ccc3ccccc3c2)n1 [Example 37]
,,15,91,,Cc1cccc(NS(=O)(=O)c2ccc(-c3ccc(F)cc3)c(C)c2)n1 [Example 280]
,,110,81,,Cc1cccc(NS(=O)(=O)c2ccc(-c3cccc(C(C)C)c3)c(C)c2)n1 [Example 236]
8.1,98,,,,Nc1cccc(NS(=O)(=O)c2ccc(-c3ccc(F)cc3)cc2)n1 [Example 43]
4.8,93.6,,,,"Cc1c(S(=O)(=O)Nc2cccc(CCO)n2)sc2ccc(Cl)cc12 [Example 115, 5-Chloro-3-methyl-benzo[b]thiophene-2-sulfonic acid [6-(2-hydroxy-ethyl)-pyridin-2-yl]-amide]"
,,5.7,100,,"Cc1cccc(NS(=O)(=O)c2ccc(-c3ccc(C#N)cc3)cc2F)n1 [Example 283, 4′-Cyano-3-fluoro-biphenyl-4-sulfonic acid (6-methyl-pyridin-2-yl)-amide]"
,,< 1,100,,"N#Cc1ccc(C2CCN(S(=O)(=O)Nc3cccc(N)n3)CC2)cc1 [Example 317, 4-(4-Cyano-phenyl)-piperidine-1-sulfonic acid (6-amino-pyridin-2-yl)-amide]"
9.5,93,,,,COc1ccc(-c2ccc(S(=O)(=O)Nc3cccc(C)n3)c(C)c2)cc1F [Example 187]
,,47,75,,Cc1cccc(NS(=O)(=O)c2ccc(-c3ccccc3Cl)c(C)c2)n1 [Example 212]
,,5.9,100,,COc1cc(S(=O)(=O)Nc2cccc(C)n2)ccc1-c1ccc(C#N)cc1 [Example 258]
4.4,100,,,,Nc1cccc(NS(=O)(=O)c2ccc(-c3ccc(C(F)(F)F)cc3)cc2)n1 [Example 95]
15,81,,,,CCOc1ccc(-c2ccc(S(=O)(=O)Nc3cccc(C)n3)c(C)c2)cc1 [Example 192]
17,82,,,,Cc1cccc(NS(=O)(=O)c2ccc(-c3ccccc3C#N)cc2C)n1 [Example 195]
47.6,66.8,,,,CCc1cccc(NS(=O)(=O)c2cccc(Cl)c2C)n1 [Example 56]
9,96,,,,Nc1cccc(NS(=O)(=O)c2ccc(C(F)(F)F)cc2)n1 [Example 39]
,,68,73.9,,N#Cc1ccc(-c2ccc(S(=O)(=O)Nc3ccc4ccccc4n3)cc2)cn1 [Example 289]
,,23,81,,Cc1cccc(NS(=O)(=O)c2ccc(-c3ccc4c(c3)CCO4)cc2C)n1 [Example 211]

Ki (11β-hsd-1 enzyme [1]) [nM],inhibition at 0.1 µM (11β-hsd-1 enzyme [2]; [3]) [%],"Ki (11β-hsd-1 enzyme [1]; apparent Ki, 11β-hsd-1 enzyme) [nM]",inhibition at 0.1 µM (11β-hsd-1 enzyme [2]; [4]) [%],also measured,SMILES
,,11,91,,N#Cc1ccc(-c2ccc(S(=O)(=O)Nc3ccc4ccccc4n3)cc2)nc1 [Example 288]
13,93,,,,Cc1cccc(NS(=O)(=O)c2ccc(-c3ccccc3Cl)cc2C)n1 [Example 164]
480,,,,,CCN(CC)C(=O)Cc1cccc(NS(=O)(=O)c2ccc(C(F)(F)F)cc2)n1 [Example 21]
220,,,,,CCN(CC)C(=O)Cc1cccc(NS(=O)(=O)c2cccc(Cl)c2C)n1 [Example 20]
,54.8,,,,Cc1c(Cl)cccc1S(=O)(=O)Nc1cccc(CC(=O)N2CCCCC2)n1 [Example 9]
,75.3,,,,Cc1cccc(NS(=O)(=O)c2ccc(-c3cccc(OC(F)(F)F)c3)cc2)n1 [Example 153]
,8.1,,,,"Cc1cccc(N(C)S(=O)(=O)c2ccc(-c3ccc(C#N)cc3)cc2)n1 [Example 110, 4′-Cyano-biphenyl-4-sulfonic acid methyl-(6-methyl-pyridin-2-yl)-amide]"
,19.2,,,,CC(=O)Nc1nc(C)c(S(=O)(=O)Nc2cc(C)cc(C)n2)s1 [Example 100]
,21,,,,Cc1cccc(NS(=O)(=O)c2ccc(Oc3ccccc3)cc2)n1 [Example 47]
,42.8,,,,CCN(CC)C(=O)Cc1cccc(NS(=O)(=O)c2ccc(C(C)C)cc2)n1 [Example 25]
,23.9,,,,COC(=O)c1cccc(NS(=O)(=O)c2cccc(Cl)c2C)n1 [Example 4]
,65.6,,,,COc1c(C)cc(-c2ccc(S(=O)(=O)Nc3cccc(C)n3)cc2)cc1C [Example 156]
,86.3,,,,CSc1ccc(-c2ccc(S(=O)(=O)Nc3cccc(C)n3)cc2)cc1 [Example 129]
,,,85.7,,Cc1cccc(NS(=O)(=O)c2ccc(-c3ccc(C#N)cn3)cc2)n1 [Example 275]
,,,58,,Cc1cccc(NS(=O)(=O)c2ccc(-c3cccc(Cl)c3Cl)c(C)c2)n1 [Example 237]
,,,57,,Cc1cccc(NS(=O)(=O)c2ccc(-c3ccc(S(C)(=O)=O)cc3)c(C)c2)n1 [Example 234]
,19.2,,,,Cc1cccc(NS(=O)(=O)Cc2cc(Cl)cc(Cl)c2)n1 [Example 75]
,5.52,,,,"Cc1c(Cl)cccc1S(=O)(=O)Nc1cccc(CC(=O)N2CCOCC2)n1 [Example 8, 3-Chloro-2-methyl-N-[6-(2-morpholin-4-yl-2-oxo-ethyl)-pyridin-2-yl]-benzenesulfonamide]"
,1.3,,,,COc1cccc(NS(=O)(=O)c2ccc(C(F)(F)F)cc2)n1 [Example 62]
,,,39.7,,"Cc1cccc(NS(=O)(=O)c2ccc(-c3cnco3)cc2)n1 [Example 264, N-(6-Methyl-pyridin-2-yl)-4-oxazol-5-yl-benzenesulfonamide]"
